Data: patent US20230382925A1, “MODULATORS OF CYSTIC FIBROSIS TRANSMEMBRANE CONDUCTANCE REGULATOR” (VERTEX PHARMACEUTICALS INCORPORATED, priority 2020, published 2023)
Where two headings read alike, the source gives them in different places.

Molecular target: CFTR (Homo sapiens, UniProt P13569)
Assay: Membrane Potential Dye, Enteroid Assay B
Type: cell-based
Protocol: Base medium (ADF+++) consisted of Advanced […], 2 mM Glutamax, 10 mM HEPES, 1 μg/mL penicillin/streptomycin.
Intestinal enteroid maintenance medium (IEMMN) consisted of ADF+++, 1× B27 supplement, 1× N2 supplement, 1.25 mM N-acetyl cysteine, 10 mM Nicotinamide, 50 ng/mL hEGF, 10 nM Gastrin, 1 μg/mL hR-spondin-1, 100 ng/mL hNoggin, TGF-b type 1 inhibitor A-83-01, 100 μg/mL Primocin, 10 μM P38 MAPK inhibitor SB202190.
Bath 1 Buffer consisted of 1 mM MgCl2, 160 mM NaCl, 4.5 mM KCl, 10 mM HEPES, 10 mM Glucose, 2 mM CaCl2).
Chloride Free Buffer consisted of 1 mM Magnesium Gluconate, 2 mM Calcium Gluconate, 4.5 mM Potassium Gluconate, 160 mM Sodium Gluconate, 10 mM HEPES, 10 mM Glucose.
Bath 1 Dye Solution consisted of Bath 1 Buffer, 0.04% Pluronic F127, 20 μM Methyl Oxonol, 30 μM CaCCinh-A01, 30 μM Chicago Sky Blue.
Chloride Free Dye Solution consisted of Chloride Free Buffer, 0.04% Pluronic F127, 20 μM Methyl Oxonol, 30 μM CaCCinh-A01, 30 μM Chicago Sky Blue.
Chloride Free Dye Stimulation Solution consisted of Chloride Free Dye Solution, 10 μM forskolin, 100 μM IBMX, and 300 nM Compound III.
Human intestinal epithelial enteroid cells were obtained from the Hubrecht Institute for Developmental Biology and Stem Cell Research, Utrecht, The Netherlands and expanded in T-Flasks as previously described (Dekkers J F, Wiegerinck C L, de Jonge H R, Bronsveld I, Janssens H M, de Winter-de Groot K M, Brandsma A M, de Jong N W M, Bijvelds M J C, Scholte B J, Nieuwenhuis E E S, van den Brink S, Clevers H, van der Ent C K, Middendorp S and M Beekman J M. A functional CFTR assay using primary cystic fibrosis intestinal organoids. Nat Med. 2013 July; 19(7):939-45.).
3. Enteroid Cell Harvesting and Seeding
Cells were recovered in cell recovery solution, collected by centrifugation at 650 rpm for 5 min at 4° C., resuspended in TrypLE and incubated for 5 min at 37° C. Cells were then collected by centrifugation at 650 rpm for 5 min at 4° C. and resuspended in IEMM containing 10 μM ROCK inhibitor (RI). The cell suspension was passed through a 40 μm cell strainer and resuspended at 1×10^6 cells/mL in IEMM containing 10 μM RI. Cells were seeded at 5000 cells/well into multi-well plates and incubated for overnight at 37° C., 95% humidity and 5% CO2 prior to assay.
5. Membrane Potential Dye, Enteroid Assay B
Enteroid cells were incubated with test compound in IEMM for 18-24 hours at 37° C., 95% humidity and 5% CO2. […] Briefly, cells were washed 5 times in Bath 1 Buffer. Bath 1 Dye Solution was added and the cells were incubated for 25 min at room temperature. Following dye incubation, cells were washed 3 times in Chloride Free Dye Solution. Chloride transport was initiated by addition of Chloride Free Dye Stimulation Solution and the fluorescence signal was read for 15 min. […] Chloride transport was then expressed as a percentage of the chloride transport following treatment with 1 μM (14S)-8-[3-(2-{Dispiro[2.0.2.1]heptan-7-yl}ethoxy)-1H-pyrazol-1-yl]-12,12-dimethyl-2λ^6-thia-3,9,11,18,23-pentaazatetracyclo[17.3.1.111,14.05,10]tetracosa-1(22),5,7,9,19(23),20-hexaene-2,2,4-trione, 3 μM (R)-1-(2,2-difluorobenzo[d][1,3]dioxol-5-yl)-N-(1-(2,3-dihydroxypropyl)-6-fluoro-2-(1-hydroxy-2-methylpropan-2-yl)-1H-indol-5-yl)cyclopropanecarboxamide and 300 nM acute N-[2,4-bis(1,1-dimethylethyl)-5-hydroxyphenyl]-1,4-dihydro-4-oxoquinoline-3-carboxamide triple combination control (% Activity).

[1] = Table 10, read-out: Ent. B EC50

Sequence of CFTR (P13569 with tags, fused parts or gaps DEL508-508): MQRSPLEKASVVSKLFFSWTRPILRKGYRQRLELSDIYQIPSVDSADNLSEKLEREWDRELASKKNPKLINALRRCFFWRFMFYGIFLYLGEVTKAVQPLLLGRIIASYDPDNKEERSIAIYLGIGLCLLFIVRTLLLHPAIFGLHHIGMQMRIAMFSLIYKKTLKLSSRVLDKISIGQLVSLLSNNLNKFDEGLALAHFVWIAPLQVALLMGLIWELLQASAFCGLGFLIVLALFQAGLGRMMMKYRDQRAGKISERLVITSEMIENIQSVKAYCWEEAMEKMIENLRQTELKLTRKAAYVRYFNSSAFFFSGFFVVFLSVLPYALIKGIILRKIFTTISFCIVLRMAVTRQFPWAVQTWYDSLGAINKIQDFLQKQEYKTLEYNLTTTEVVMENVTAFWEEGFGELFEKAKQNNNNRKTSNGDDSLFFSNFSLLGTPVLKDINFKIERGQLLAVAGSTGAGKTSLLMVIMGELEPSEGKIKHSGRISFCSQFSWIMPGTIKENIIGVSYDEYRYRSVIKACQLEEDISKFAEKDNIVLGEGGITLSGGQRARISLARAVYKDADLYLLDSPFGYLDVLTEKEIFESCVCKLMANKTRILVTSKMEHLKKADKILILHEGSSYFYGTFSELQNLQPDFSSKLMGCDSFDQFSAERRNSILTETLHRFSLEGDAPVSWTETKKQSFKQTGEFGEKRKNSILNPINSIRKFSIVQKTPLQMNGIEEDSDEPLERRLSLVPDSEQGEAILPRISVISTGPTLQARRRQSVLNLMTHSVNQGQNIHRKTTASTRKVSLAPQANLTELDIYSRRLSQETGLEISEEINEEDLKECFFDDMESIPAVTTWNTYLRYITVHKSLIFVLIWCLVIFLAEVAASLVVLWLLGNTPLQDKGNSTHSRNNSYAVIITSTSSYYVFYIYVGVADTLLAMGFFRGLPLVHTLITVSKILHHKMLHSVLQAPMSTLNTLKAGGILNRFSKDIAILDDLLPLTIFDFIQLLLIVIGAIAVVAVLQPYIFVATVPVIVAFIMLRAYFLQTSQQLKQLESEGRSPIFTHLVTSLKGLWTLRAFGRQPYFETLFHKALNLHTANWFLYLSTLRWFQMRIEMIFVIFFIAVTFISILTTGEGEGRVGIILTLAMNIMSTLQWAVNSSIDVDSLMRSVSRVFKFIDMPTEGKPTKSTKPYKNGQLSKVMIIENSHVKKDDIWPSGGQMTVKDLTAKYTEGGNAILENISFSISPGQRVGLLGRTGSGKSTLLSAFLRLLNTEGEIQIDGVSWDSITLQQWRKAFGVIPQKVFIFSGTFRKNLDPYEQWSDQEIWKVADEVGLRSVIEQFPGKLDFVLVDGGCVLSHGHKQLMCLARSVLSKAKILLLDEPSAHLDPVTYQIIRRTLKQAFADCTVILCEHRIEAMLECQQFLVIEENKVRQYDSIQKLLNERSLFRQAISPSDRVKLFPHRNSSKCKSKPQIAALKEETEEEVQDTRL

Compound	Ent. B Max Activity (%) (Table 10)	EC50 [1] [nM]	Ent. B Max Activity (%) (Table 9)	EC50 (Table 9, read-out: Ent. B EC50) [nM]	also measured
CCC(=O)NC1CC2(C1)CC(N1C(=O)c3cccc(c3)S(=O)(=O)Nc3nc(cc(-c4c(C)cccc4C)n3)OC[C@H]1CC(C)(C)C)C2 (stereo partly drawn) [Compound 353]	+++ (+++ is >60%)	< 1000			
Cc1cccc(C)c1-c1cc2nc(n1)NS(=O)(=O)c1cccc(c1)C(=O)N([C@H]1C[C@@]3(C[C@@H](N)C3)C1)[C@H](CC1(C(F)(F)F)CC1)CO2 (stereo partly drawn) [Compound 81, (R)-6-((2R,4r,6R)-6-Aminospiro[3.3]heptan-2-yl)-1^6-(2,6-dimethylphenyl)-7-((1-(trifluoromethyl)cyclopropyl)methyl)-9-oxa-3-thia-2,6-diaza-1(2,4)-pyrimidina-4(1,3)-benzenacyclononaphan-5-one 3,3-dioxide]			+++ (+++ is >60%)	< 1000	
CC(C)(C)C[C@@H]1COc2cc([C@H]3CCCCC3(C)C)nc(n2)NS(=O)(=O)c2cccc(c2)C(=O)N1C1CC2(CC2)C1 [Compound 397]					Ent. B Max Activity (%): ++ (++ is 30-60%); EC50 (read-out: Ent. B EC50): < 1000 nM
CCC(=O)NC1CC(N2C(=O)c3cccc(c3)S(=O)(=O)Nc3nc(cc(-c4c(C)cccc4C)n3)OC[C@H]2CC(C)(C)C)C1 (stereo in doubt) [Compound 446]			+++ (+++ is >60%)	< 1000	
Cc1cccc(C)c1-c1cc2nc(n1)NS(=O)(=O)c1cccc(c1)C(=O)N([C@H]1C[C@@H](N3CCCCC3)C1)[C@H](CC(C)C)CO2 [Compound 388]			+++ (+++ is >60%)	< 1000	
Cc1cccc(C)c1-c1cc2nc(n1)NS(=O)(=O)c1cccc(c1)C(=O)N([C@H]1C[C@H](OC(=O)NCc3ccccc3)C1)[C@H](CC(C)C)CO2 (stereo in doubt) [Compound 362]	++ (++ is 30-60%)	< 1000			
Cc1cccc(C)c1-c1cc2nc(n1)NS(=O)(=O)c1cccc(c1)C(=O)N(C1CC3(C1)CC(C(C)(C)O)C3)[C@H](CC(C)(C)C)CO2 (single isomer, unassigned) [Compound 117]	+++ (+++ is >60%)	< 1000			
Cc1cccc(C)c1-c1cc2nc(n1)NS(=O)(=O)c1cccc(c1)C(=O)N(C1CC3(CCN(CCOC(C)C)CC3)C1)[C@H](CC(C)(C)C(F)(F)F)CO2 [Compound 189, (11R)-6-(2,6-dimethylphenyl)-12-{7-[2-(propan-2-yloxy)ethyl]-7-azaspiro[3.5]nonan-2-yl}-11-(3,3,3-trifluoro-2,2-dimethylpropyl)-9-oxa-2λ^6-thia-3,5,12,19-tetraazatricyclo[12.3.1.14,8]nonadeca-1(17),4(19),5,7,14(18),15-hexaene-2,2,13-trione]			+++ (+++ is >60%)	< 1000	
Cc1cccc(C)c1-c1cc2nc(n1)NS(=O)(=O)c1cccc(c1)C(=O)N(C1CC3(CCN(C4CC(F)(F)C4)CC3)C1)[C@H](CC(C)C)CO2 [Compound 276]			+++ (+++ is >60%)	< 1000	
Cc1cccc(C)c1-c1cc2nc(n1)NS(=O)(=O)c1cccc(c1)C(=O)N(C1CC(N[C@H]3CC[C@@H](O)CC3)C1)[C@H](CC(C)C)CO2 (stereo partly drawn) [Compound 371]			+++ (+++ is >60%)	1000 to 3000	
Cc1cccc(C)c1-c1cc2nc(n1)NS(=O)(=O)c1cccc(c1)C(=O)N([C@H]1C[C@@H](NC(=O)OC(C)C)C1)[C@H](CC(C)C)CO2 (single isomer, unassigned) [Compound 63]					Ent. B Max Activity (%): +++ (+++ is >60%); EC50 (read-out: Ent. B EC50): < 1000 nM
COC(=O)N(C)[C@]1(C)C[C@H](N2C(=O)c3cccc(c3)S(=O)(=O)Nc3nc(cc(-c4c(C)cccc4C)n3)OC[C@H]2CC(C)(C)C)C1 (single isomer, unassigned) [Compound 173]	++ (++ is 30-60%)	< 1000			
Cc1cccc(C)c1-c1cc2nc(n1)NS(=O)(=O)c1cccc(c1)C(=O)N(C1CC(C)(OC(F)(F)F)C1)[C@H](CC(C)(C)C)CO2 (single isomer, unassigned) [Compound 157]	++ (++ is 30-60%)	< 1000			
Cc1cccc(C)c1-c1cc2nc(n1)NS(=O)(=O)c1cccc(c1)C(=O)N(c1cnn(C)c1)[C@H](CC(C)(C)C)CO2 [Compound 230]	+++ (+++ is >60%)	< 1000			
Cc1cccc(C)c1-c1cc2nc(n1)NS(=O)(=O)c1cccc(c1)C(=O)N([C@H]1C[C@@H](N(C)CCCO)C1)[C@H](CC(C)C)CO2 [Compound 67, (11R)-6-(2,6-Dimethylphenyl)-12-[3-[3-hydroxypropyl(methyl)amino]cyclobutyl]-11-isobutyl-2,2-dioxo-9-oxa-2λ^6-thia-3,5,12,19-tetrazatricyclo[12.3.1.14,8]nonadeca-1(18),4(19),5,7,14,16-hexaen-13-one]			+++ (+++ is >60%)	< 1000	
Cc1cccc(C)c1-c1cc2nc(n1)NS(=O)(=O)c1cccc(c1)C(=O)N(C1CC3(CCNC(=O)C3)C1)[C@H](CC(C)C)CO2 (stereo partly drawn) [Compound 201]	++ (++ is 30-60%)	< 1000			
Cc1cccc(C)c1-c1cc2nc(n1)NS(=O)(=O)c1cccc(c1)C(=O)N(C1CC3(CCN(CCOCc4ccccc4)CC3)C1)[C@H](CC(C)C)CO2 [Compound 290]			+++ (+++ is >60%)	< 1000	
CC(=O)N[C@H]1C[C@@]2(C1)C[C@H](N1C(=O)c3cccc(c3)S(=O)(=O)Nc3nc(cc(-c4c(C)cccc4C)n3)OC[C@H]1CC1(C(F)(F)F)CC1)C2 (stereo partly drawn) [Compound 85, N-((2R,4r,6R)-6-((R)-1^6-(2,6-Dimethylphenyl)-3,3-dioxido-5-oxo-7-((1-(trifluoromethyl)cyclopropyl)methyl)-9-oxa-3-thia-2,6-diaza-1(2,4)-pyrimidina-4(1,3)-benzenacyclononaphane-6-yl)spiro[3.3]heptan-2-yl)acetamide]			+++ (+++ is >60%)	< 1000	
COC1CC(N2C(=O)c3cccc(c3)S(=O)(=O)Nc3nc(cc(-c4c(C)cccc4C)n3)OC[C@H]2CC2(C(F)(F)F)CC2)C1 (stereo in doubt) [Compound 466]					Ent. B Max Activity (%): +++ (+++ is >60%); EC50 (read-out: Ent. B EC50): < 1000 nM
CCN(C(=O)OC)C1CC(N2C(=O)c3cccc(c3)S(=O)(=O)Nc3nc(cc(-c4c(C)cccc4C)n3)OC[C@H]2CC(C)(C)C)C1 (single isomer, unassigned) [Compound 238]	++ (++ is 30-60%)	< 1000			
Cc1cccc(C)c1-c1cc2nc(n1)NS(=O)(=O)c1cccc(c1)C(=O)N([C@H]1CC3(C[C@H](N(C)C(=O)OC(C)C)C3)C1)[C@H](CC(C)C)CO2 (stereo partly drawn) [Compound 283]			++ (++ is 30-60%)	< 1000	
COC(=O)NC1(C)CC2(CC(N3C(=O)c4cccc(c4)S(=O)(=O)Nc4nc(cc(-c5c(C)cccc5C)n4)OC[C@H]3CC(C)(C)C)C2)C1 (single isomer, unassigned) [Compound 96]	++ (++ is 30-60%)	< 1000			
COC(=O)N[C@H]1CC2(C1)C[C@H](N1C(=O)c3cccc(c3)S(=O)(=O)Nc3nc(cc(-c4c(C)cccc4C)n3)OC[C@H]1CC(C)C)C2 (stereo partly drawn) [Compound 304]					Ent. B Max Activity (%): +++ (+++ is >60%); EC50 (read-out: Ent. B EC50): < 1000 nM
Cc1cccc(C)c1-c1cc2nc(n1)NS(=O)(=O)c1cccc(c1)C(=O)N(C1CC(N[C@H]3CC[C@H](CO)CC3)C1)[C@H](CC(C)C)CO2 (stereo partly drawn) [Compound 373]			+++ (+++ is >60%)	< 1000	
